In patent publication US8586747B2, “3,3-dimethyl tetrahydroquinoline derivatives” (Hoffmann-La Roche Inc., priority 2010, dated 2013):

tested on: AMP-activated protein kinase (AMPK); assay: ADP Quest assay for AMPK activators; type: biochemical; set-up: key: fold AMPK activation with vs without activator at 30 µM; settings: fold of AMPK activation to phosphorylate SAMS peptide without and with an activator at the concentration of 30 µM
How it was run: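 E30, the fold increase in SAMS peptide phosphorylation at 30 µM compound relative to no activator, is derived from kinetic fluorescent detection of ADP (ex 530, em 590 nm). AMPK starts the ATP-containing reaction at room temperature; compounds span […] by 2-fold steps, AMP serves as reference.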

Row | Compound | E30
1 | COC(=O)c1cc(Cl)cc2c1NC(c1cccc(NC(C)(C)C(=O)O)c1)C(C)(C)C2 (stereo not shown) [Example 78, 2-[3-(1-Carboxy-1-methyl-ethylamino)-phenyl]-6-chloro-3,3-dimethyl-1,2,3,4-tetrahydro-quinoline-8-carboxylic acid methyl ester] | 1.79
2 | CNC(=O)C(C)(C)Nc1cccc(C2Nc3c(cc(Cl)cc3C(=O)O)CC2(C)C)c1 (stereo not shown) [Example 79, 6-Chloro-3,3-dimethyl-2-[3-(1-methyl-1-methylcarbamoyl-ethylamino)-phenyl]-1,2,3,4-tetrahydro-quinoline-8-carboxylic acid] | 1.33
3 | CC(C)(Nc1cccc(C2Nc3c(cc(Cl)cc3C(=O)O)CC2(C)C)c1)C(=O)O (stereo not shown) [Example 80, 2-[3-(1-Carboxy-1-methyl-ethylamino)-phenyl]-6-chloro-3,3-dimethyl-1,2,3,4-tetrahydro-quinoline-8-carboxylic acid] | 1.72
4 | CC(=O)N1CCN(c2cccc(C3Nc4c(cc(Cl)cc4C(=O)O)CC3(C)C)c2)CC1 (stereo not shown) [Example 81, 2-[3-(4-Acetyl-piperazin-1-yl)-phenyl]-6-chloro-3,3-dimethyl-1,2,3,4-tetrahydro-quinoline-8-carboxylic acid] | 2.85
5 | Cc1ccccc1N1CCN(c2cccc(C3Nc4c(cc(Cl)cc4C(=O)O)CC3(C)C)c2)CC1 (stereo not shown) [Example 82, 6-Chloro-3,3-dimethyl-2-[3-(4-o-tolyl-piperazin-1-yl)-phenyl]-1,2,3,4-tetrahydro-quinoline-8-carboxylic acid] | 1.5
6 | CC(C)Oc1ccc(-c2cccc(C3Nc4ccc(C(=O)O)cc4CC3(C)C)c2)cc1 (stereo not shown) [Example 84, 2-(4′-Isopropoxy-biphenyl-3-yl)-3,3-dimethyl-1,2,3,4-tetrahydro-quinoline-6-carboxylic acid] | 1.25

Now from value to compound:

Row | E30 | Compound
7 | 1.19 | CC1(C)Cc2cc(C(=O)NS(C)(=O)=O)ccc2NC1c1ccc(N2CCOCC2)cc1 (stereo not shown) [Example 74, N-[3,3-Dimethyl-2-(4-morpholin-4-yl-phenyl)-1,2,3,4-tetrahydro-quinoline-6-carbonyl]-methanesulfonamide]
8 | 1.19 | CC(C)N1CCN(c2cc(F)cc(C3Nc4ccc(C(=O)NS(C)(=O)=O)cc4CC3(C)C)c2)CC1 (stereo not shown) [Example 75, N-{2-[3-Fluoro-5-(4-isopropyl-piperazin-1-yl)-phenyl]-3,3-dimethyl-1,2,3,4-tetrahydro-quinoline-6-carbonyl}-methanesulfonamide]
9 | 1.47 | CC1(C)Cc2cc(C(=O)O)ccc2NC1c1cc(F)cc(N2CCCC2=O)c1 (stereo not shown) [Example 76, 2-[3-Fluoro-5-(2-oxo-pyrrolidin-1-yl)-phenyl]-3,3-dimethyl-1,2,3,4-tetrahydro-quinoline-6-carboxylic acid]
10 | 1.42 | CC1(C)Cc2cc(C(=O)NS(C)(=O)=O)ccc2NC1c1cc(F)cc(N2CCCC2=O)c1 (stereo not shown) [Example 77, N-{2-[3-fluoro-5-(2-oxo-pyrrolidin-1-yl)-phenyl]-3,3-dimethyl-1,2,3,4-tetrahydro-quinoline-6-carbonyl}-methanesulfonamide]
11 | 1.35 | CC(C)(C)c1ccc(-c2cccc(C3Nc4ccc(C(=O)NS(C)(=O)=O)cc4CC3(C)C)c2)cc1 (stereo not shown) [Example 83, N-[2-(4′-tert-Butyl-biphenyl-3-yl)-3,3-dimethyl-1,2,3,4-tetrahydro-quinoline-6-carbonyl]-methanesulfonamide]
12 | 1.29 | CC(C)Oc1ccc(-c2cccc(C3Nc4ccc(C(=O)NS(C)(=O)=O)cc4CC3(C)C)c2)cc1 (stereo not shown) [Example 85, N-[2-(4′-Isopropoxy-biphenyl-3-yl)-3,3-dimethyl-1,2,3,4-tetrahydro-quinoline-6-carbonyl]-methanesulfonamide]
13 | 2.74 | CC(C)Oc1ccc(-c2cccc(C3Nc4ccc(C(=O)NS(=O)(=O)C5CC5)cc4CC3(C)C)c2)cc1 (stereo not shown) [Example 86, Cyclopropanesulfonic acid [2-(4′-isopropoxy-biphenyl-3-yl)-3,3-dimethyl-1,2,3,4-tetrahydro-quinoline-6-carbonyl]-amide]
